Measured values from patent US9987336B2, “Attenuating or treating sepsis or septic shock” (Rutgers, the State University of New Jersey, priority 2012, dated 2018).
Entries after “also recorded” stand apart in the source; their conditions may differ.

Legend:
[1] = test system: TNF-α; assay: TNF-α level after CLP (ELISA); type: in vivo, mouse; conditions: C57BL/6J mice, 16 hours post-CLP, vs. vehicle
Experimental: (§1) CD39 knockout (KO) mice and their wild-type littermates were developed according to established methods and were backcrossed 6-8 times to a C57BL/6J background (Enjyoji, et al. (1999) Nat. Med. 5(9):1010-7). Wild-type and KO littermates were used in this analysis. In some experiments, mice were treated with sodium polyoxotungstate (POM-1, Na6[H2W12O40], 3 mg/kg/h, […], prior to CLP) or apyrase from potatoes (Sigma, 5 U apyrase i.p., prior to CLP).
(§2) Polymicrobial sepsis was induced by subjecting C57BL/6J mice to CLP in accordance with established methods (Németh, et al. (2006) supra; Gallos, et al. (2005) supra; Lee, et al. (2006) supra; Csóka, et al. (2010) supra). After the operation, all mice were resuscitated with 1 ml physiological saline injected s.c. and returned to their cages with free access to food and water.
(§3) Sixteen hours after the CLP operation (the following day), the mice were reanesthetized with pentobarbital (50 mg/kg i.p.), and blood and peritoneal lavage fluid were harvested. Specifically, after opening the chest of mice, blood samples were obtained aseptically by cardiac puncture using heparinized syringes. […]
(§4) Concentrations of TNF-α and MIP-2 were determined in blood and peritoneal lavage fluid obtained 16 hours after CLP using commercially available ELISA kits (R&D Systems, Minneapolis, Minn.) according to the manufacturer's instructions.

[2] = test system: MIP-2; assay: MIP-2 level after CLP (ELISA); type: in vivo, mouse; conditions: C57BL/6J mice, 16 hours post-CLP, vs. vehicle
Experimental: as §1, §2, §3, §4

[3] = test system: adenosine receptors; conditions: CD73 KO mice made septic by CLP; compared with wild-type mice; cited from earlier work
[4] = test system: C57BL/6J mice made septic by cecal ligation and puncture (CLP); assay: Survival after sepsis induced by cecal ligation and puncture (CLP); type: in vivo, mouse; conditions: murine model of septic shock induced by cecal ligation and puncture
Experimental: In this analysis, CD39 KO mice, mice administered a CD39 blocker (sodium polyoxotungstate) or mice administered an apyrase (potato apyrase) were made septic by cecal ligation and puncture (CLP) and survival after CLP was recorded for 7 days. In addition, the immune status of the mice was assessed by measuring cytokine levels from blood and peritoneal lavage fluid. […] Thus, ectonucleotidase manipulation is therapeutically useful for the treatment of septic shock.
as §1, §2

sodium polyoxotungstate [reference compound]
TNF-α levels [1]: increased the levels
MIP-2 levels [2]: increased the levels

CCNC(=O)[C@H]1O[C@@H](n2cnc3c(N)ncnc32)[C@H](O)[C@@H]1O [NECA, 5′-(N-ethylcarboxamido)adenosine]
inflammatory cytokine levels [3]: completely reversed the increased cytokine levels

apyrase
TNF-α levels [1]: decreases plasma cytokine levels; also recorded: decreased the levels
MIP-2 levels [2]: decreases plasma cytokine levels; also recorded: decreased the levels
organ dysfunction [4]: prevents organ dysfunction
